Experimental findings from patent US9303076B2, “Cell-penetrating peptides and uses thereof” (Hoffmann-La Roche Inc., priority 2010, dated 2016) are described below.

Test [1] concerns siRNA duplex. Kind of test: gel-shift assay of peptide/siRNA complex formation. The format is binding. The settings on record: ethidium bromide staining. As to the method: Gel-shift assays were performed by mixing […] siRNA duplex with the respective peptides in a given molar ratio in water. The complexes were formed for 1 hour at 37° C. and analyzed on a 2.5% agarose gel with ethidium bromide (run: 40 minutes at 125 V). For proteinase K treatment, 1 μl proteinase K was added to a standard reaction as indicated above.
Mechanisms that may explain transfection functionalities of charged peptides such as TAT or protamine include the formation of complexes between positively charged peptides and negatively charged nucleic acids. Such complexes enable peptide-mediated membrane-interacting and/or endosome escape functionalities to transfer the complexed nucleic acids into the cytosol of cells (Law, M. et al. (2008) Biotechnol. Prog. 24, 957-963) In order to address whether the above mechanism may apply to the NTRN-derived peptide as well gel-shift assays were performed (cf. FIG. 8). To this end, siRNA was co-incubated with increasing concentrations of peptide, followed by analyses of their migration pattern via gel electrophoresis.

In test [2] the test system is human Eg5 mRNA. Kind of test: peptide-mediated transfection of siRNA targeting Eg5 (mRNA level, CytoTox-Glo apoptosis). The format is cell-based. As to the method:
The siRNA sequence specificity of NRTN was investigated via analysis of the peptide's ability to transfect a siRNA duplex targeting human Eg5 mRNA. The Eg5 knockdown dependent induction of apoptosis was determined by performing a CytoTox-Glo cytotoxicity assay (Promega Inc.). The mRNA values obtained at 1 μM were set to 100% to show dose dependent effects. Induction of apoptosis is expressed as percent of medium control. Aha1 siRNA is shown as black filled squares; luciferase siRNA is shown as non-filled circles.
(§1) Then, the cells were treated with a luminogenic peptide substrate in order to measure dead-cell protease activity, which is released from cells that have lost membrane integrity. […] The luminescence of this assay therefore represents dead cells. The 96 well plates were then analyzed in an InfiniteF200 luminescence reader.
An effective reduction of cellular Eg5 mRNA levels was found at concentrations of <10 μM. […] It is known that effective depletion of Eg5 mRNA causes mitotic arrest resulting in the onset of apoptosis (Blangy, A. et al. (1995), supra). […] Transfections with control siRNA under identical conditions were not cytotoxic either, thus confirming that the apoptotic phenotype was caused by Eg5 mRNA depletion.

The subject of test [3] is hCMEC/D3 brain endothelial cells. Kind of test: uptake into brain endothelial cells (blood-brain-barrier cell culture model). In kind it is cell-based. The conditions noted are these: FITC-conjugated peptide (N- and C-terminal), 5 μM, 1 h, 37° C.; hCMEC/D3 or primary human brain endothelial cells. As to the method: Fluorescein isothiocyanate (FITC)-conjugated NRTN peptides (N-terminal and C-terminal conjugation, respectively) were incubated with hCMEC/D3 brain endothelial cells at 5 μM for 1 h at 37° C. Subsequently, the cells were washed and fixed. Images were taken using a fluorescence microscope.
In order to evaluate potential interactions of the NRTN-derived peptide with endothelial cells forming the blood-brain-barrier, hCMEC/D3 cells or primary human brain endothelial cells were exposed to the NRTN-derived peptide in a blood-brain-barrier (BBB) model (Weksler, B. B. et al. (2005) FASEB J. 19, 1872-1874; Poller, B. et al. (2008) J. Neurochem. 107, 1358-1363). […] Thus, the NRTN-derived peptide localizes to a compartment that is important for BBB functionality (that is, for mediating and controlling transport across the BBB).

Test [4] has as its system MCF-7 human breast cancer cells. Briefly: cell viability/apoptosis after 24 h exposure to pro-apoptotic peptides and CPP fusions. In kind it is cell-based. The settings on record: MCF-7 cells, various concentrations. As to the method: MCF-7 human breast cancer cells were incubated for 24 h in the presence of various concentrations of NRTN (squares), Nur (circles), and NurNRTN (triangles) peptides. The respective amino acid sequences are given in the bottom panel. The experimental approach for assessing cell viability (and thus induction of apoptosis) was the same as in FIG. 3.
MCF-7 human breast cancer cells were incubated for 24 h in the presence of various concentrations of 4E-BP1 (circles), TAT4E-BP1 (squares), and NRTN4E-BP1 (triangles) peptides (top panel). […] The respective amino acid sequences are given in the bottom panel. The experimental approach for assessing cell viability (and thus induction of apoptosis) was the same as in FIG. 3.
Luminescence was analyzed in an InfiniteF200 luminescence reader.
as §1
Despite its proven ability to convert BCL-2 into a pro-apoptotic molecule, addition of the latter peptide (i.e. “Nor/Nur”; SEQ ID NO: 72) to cancer cells, even in high concentrations, is not sufficient to induce apoptosis, as the cellular target protein is located in the cytoplasm, but the peptide per se cannot effectively penetrate through the cell membrane to reach the target. In brief, MCF-7 breast cancer cells were incubated in the presence of this peptide for 24 h.
Subsequently, it was evaluated whether the NurNRTN fusion peptide is capable of penetrating cellular membranes and thereby induces pro-apoptotic activity within cells. MCF-7 human breast cancer cells were used as a model. The experimental approach was as described above (cf. Example 1). […] This effect was dose dependent: cytotoxicity increased with increasing concentrations of peptide.
Subsequently, it was evaluated whether the NRTN4E-BP1 fusion peptide is capable of penetrating cellular membranes and thereby induces pro-apoptotic activity within cells. MCF-7 human breast cancer cells were used as a model. The experimental approach was as described above (cf. Example 1). […] This effect was dose dependent: cytotoxicity increased with increasing concentrations of peptide.

The target in test [5] is T1, recombinant BCL2 (Homo sapiens, UniProt P10415).
T1 construct: purchased Calbiochem/Merck, Darmstadt, Germany
T1 sequence (P10415 whole entry): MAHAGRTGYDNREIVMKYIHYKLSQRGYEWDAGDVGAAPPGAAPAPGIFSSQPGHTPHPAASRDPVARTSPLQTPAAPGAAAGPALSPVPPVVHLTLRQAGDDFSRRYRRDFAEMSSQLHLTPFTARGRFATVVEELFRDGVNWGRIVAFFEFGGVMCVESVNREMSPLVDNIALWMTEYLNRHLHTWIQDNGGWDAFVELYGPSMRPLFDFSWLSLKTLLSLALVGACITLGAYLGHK
Briefly: BCL2 binding to bead-immobilized peptides. The conditions noted are these: iodoacetyl beads, elution buffer pH 2.8, protein stain. On the procedure:
In order to determine whether the BCL2 binding properties of the Nur77-derived peptide are maintained in the NurNRTN fusion peptide, the respective NurNRTN and NRTN peptides were coupled to iodoacetyl beads (Pierce Biotechnology, Inc., Rockford, Ill., USA). The beads were incubated with recombinant BCL2 (Calbiochem/Merck, Darmstadt, Germany) and washed with PBS and 0.5 M NaCl, 0.025 NaN3, 0.05% Tween20 to remove unbound protein. Specific binding of BCL2 to the immobilized NurNTRN fusion peptide was determined by eluting bound […] from the beads with elution buffer (pH 2.8), transfer of the eluted fraction to nitrocellulose (Invitrogen Corporation, Carlsbad, Calif., USA), and protein detection by means of the MemCode Reversible Protein Stain Kit (Pierce Biotechnology, Inc., Rockford, Ill., USA).

“Also recorded” adds a separate entry of the source. Bounds are passed on as bounds.

Turning to “GAAEAAARVYDLGLRRLRQRRRLRRERVRA (NRTN peptide sequence; listed as Homo sapiens) [peptide derived from human neurturin]”, the “complex formation with siRNA” value in test [1] is “able to form stable complexes with siRNA”. The “apoptotic phenotype upon siEg5 transfection” value in test [2] (CytoTox-Glo) is given as “an apoptotic phenotype was observed”. Moreover, in test [2] (siRNA targeting Eg5), the “peptide concentration giving effective reduction of cellular Eg5 mRNA levels” value was below 10 µM. Besides, the “uptake / localization in brain endothelial cells” value in test [3] was “accumulates (i.e. internalizes) under these assay conditions in endosomal structures; also recorded: localizes to intracellular endosomal structures”. The “cell viability / induction of apoptosis” value in test [4] is given as “did not affect cell viability or lead to induction of apoptosis”. Further, in test [5], the “BCL2 in eluates from peptide-coated beads” value is reported as “very small amounts of BCL2 were eluted”.
